According to ChEMBL document CHEMBL5321293, “Discovery of ERD-3111 as a Potent and Orally Efficacious Estrogen Receptor PROTAC Degrader with Strong Antitumor Activity” (J Med Chem, 2023):
The source made the active and inactive calls. The rule behind the calls is not given here.

Key:
[1] = target: Protein cereblon/Estrogen receptor (Homo sapiens, UniProt P03372+Q96SW2); assay: Protac activity at human ERalpha in human T47D cells assessed as reduction in ERalpha protein level at 0.1 to 100 nM by Western blot analysis; format: cell-based; conditions: dose 0.1-100 nM
MCF7 [2] = assay: Antitumor activity against human MCF7 cells harboring wild type ESR1 xenografted in CB17 SCID mouse assessed as tumor growth inhibition at 30 mg/kg, po qd for 5 weeks; format: functional; conditions: MCF7, 840 h, read-out: TGI
[3] = Drug concentration in plasma of CB17 SCID mouse xenografted with human MCF7 cells harboring wild type ESR1 at 30 mg/kg, po qd for 3 days and measured after 6 hrs last dose by LC-MS/MS analysis; format: ADME, organism-based; conditions: time 3 day
[4] = Drug concentration in plasma of CB17 SCID mouse xenografted with human MCF7 cells harboring wild type ESR1 at 30 mg/kg, po qd for 3 days and measured after 24 hrs last dose by LC-MS/MS analysis; format: ADME, organism-based; conditions: time 3 day
[5] = Cmax in ICR mouse at 3 mg/kg, po and measured upto 24 hrs by LC-MS/MS analysis; format: ADME, organism-based; set-up: dose 3 mg/kg, time < 24 hrs, route po; conditions: in vivo
Cytochrome P450 3A4 [6] = target: T1, Cytochrome P450 3A4 (Homo sapiens, UniProt P08684); assay: Inhibition of CYP3A4 in human liver microsomes using testosterone as substrate preincubated for 5 mins followed by NADPH addition and measured after 10 mins by LC-MS/MS analysis; format: ADME, Microsome
[7] = Volume of distribution at steady state in ICR mouse at 1 mg/kg, iv and measured upto 24 hrs by LC-MS/MS analysis; format: ADME, organism-based; conditions: in vivo, read-out: Vdss
[8] = Half life in ICR mouse at 3 mg/kg, po and measured upto 24 hrs by LC-MS/MS analysis; format: ADME, organism-based; conditions: in vivo
[9] = Drug concentration in tumor of CB17 SCID mouse xenografted with human MCF7 cells harboring wild type ESR1 at 30 mg/kg, po qd for 3 days and measured after 6 hrs last dose by LC-MS/MS analysis; format: ADME, organism-based, Neoplasm; conditions: time 3 day, read-out: Ct
[10] = Drug concentration in tumor of CB17 SCID mouse xenografted with human MCF7 cells harboring ESR1 D538G mutant at 10 mg/kg, po qd for 3 days and measured after 6 hrs last dose by LC-MS/MS analysis; format: ADME, organism-based, Neoplasm; conditions: time 3 day, read-out: Ct
Cytochrome P450 3A4 [11] = target: T1, Cytochrome P450 3A4; assay: Inhibition of CYP3A4 in human liver microsomes using midazolam as substrate preincubated for 5 mins followed by NADPH addition and measured after 10 mins by LC-MS/MS analysis; format: ADME, Microsome
MCF7 [12] = assay: Antitumor activity against human MCF7 cells harboring ESR1 Y537S mutant xenografted in CB17 SCID mouse assessed as tumor growth inhibition at 30 mg/kg, po qd for 4 weeks and measured 30 days post last dose; format: functional; conditions: MCF7, 672 h, read-out: TGI
[13] = Drug concentration in tumor of CB17 SCID mouse xenografted with human MCF7 cells harboring ESR1 Y537S mutant at 30 mg/kg, po qd for 3 days and measured after 6 hrs last dose by LC-MS/MS analysis; format: ADME, organism-based, Neoplasm; conditions: time 3 day, read-out: Ct
[14] = Half life in Beagle dog at 1 mg/kg, po and measured upto 24 hrs by LC-MS/MS analysis; format: ADME, organism-based, Canis lupus familiaris; conditions: in vivo
MCF7 [15] = assay: Antitumor activity against human MCF7 cells harboring ESR1 D538G mutant xenografted in CB17 SCID mouse assessed as tumor growth inhibition at 10 mg/kg, po qd for 4 weeks and measured 1 week post last dose; format: functional, organism-based
[16] = Volume of distribution at steady state in Sprague-Dawley rat at 1 mg/kg, iv and measured upto 24 hrs by LC-MS/MS analysis; conditions: in vivo
[17] = Downregulation of ERalpha protein expression in tumor of CB17 SCID mouse xenografted with human MCF7 cells harboring wild type ESR1 at 10 mg/kg, po qd for 3 days and measured after 6 hrs last dose by Western blot analysis relative to control; format: functional; conditions: time 3 day
[18] = Oral bioavailability in ICR mouse at 3 mg/kg and measured upto 24 hrs by LC-MS/MS analysis; format: ADME, organism-based; conditions: in vivo
[19] = Toxicity in CB17 SCID mouse xenografted with human MCF7 cells harboring ESR1 D538G mutant assessed as body weight change at 10 mg/kg,po qd for 4 weeks; format: organism-based; conditions: in vivo, 672 h
[20] = AUC in ICR mouse at 3 mg/kg, po and measured upto 24 hrs by LC-MS/MS analysis; format: ADME, organism-based; set-up: dose 3 mg/kg, time < 24 hrs, route po; conditions: in vivo
[21] = Volume of distribution at steady state in Beagle dog at 0.5 mg/kg, iv and measured upto 24 hrs by LC-MS/MS analysis; format: ADME, organism-based, Canis lupus familiaris; conditions: in vivo, read-out: Vdss
MCF7 [22] = assay: Antitumor activity against human MCF7 cells harboring ESR1 Y537S mutant xenografted in CB17 SCID mouse assessed as tumor growth inhibition at 10 mg/kg, po qd for 4 weeks and measured 30 days post last dose; format: functional; conditions: MCF7, 672 h, read-out: TGI
Cytochrome P450 1A2 = target: T2, Cytochrome P450 1A2 (Homo sapiens, UniProt P05177); assay: Inhibition of CYP1A2 in human liver microsomes preincubated for 5 mins in presence substrate followed by NADPH addition and measured after 10 mins by LC-MS/MS analysis; format: ADME, Microsome
T2 sequence (P05177 whole entry): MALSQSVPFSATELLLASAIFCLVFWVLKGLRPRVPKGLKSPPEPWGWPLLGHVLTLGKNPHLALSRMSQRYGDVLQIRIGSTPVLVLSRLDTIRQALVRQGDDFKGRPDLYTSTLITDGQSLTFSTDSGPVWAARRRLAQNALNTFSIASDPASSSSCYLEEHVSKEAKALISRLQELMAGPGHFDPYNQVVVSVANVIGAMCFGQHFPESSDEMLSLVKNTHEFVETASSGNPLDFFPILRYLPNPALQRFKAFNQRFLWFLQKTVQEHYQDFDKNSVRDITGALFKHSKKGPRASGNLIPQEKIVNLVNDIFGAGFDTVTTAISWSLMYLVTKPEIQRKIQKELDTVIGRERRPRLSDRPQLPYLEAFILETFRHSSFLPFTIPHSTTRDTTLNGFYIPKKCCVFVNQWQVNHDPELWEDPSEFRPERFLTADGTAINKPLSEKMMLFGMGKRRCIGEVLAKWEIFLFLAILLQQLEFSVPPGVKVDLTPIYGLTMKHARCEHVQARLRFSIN

MCF7 [23] = assay: Antitumor activity against human MCF7 cells harboring ESR1 D538G mutant xenografted in CB17 SCID mouse assessed as tumor growth inhibition at 30 mg/kg, po qd for 4 weeks and measured 1 week post last dose; format: functional, organism-based
[24] = Clearance in Beagle dog at 0.5 mg/kg, iv and measured upto 24 hrs by LC-MS/MS analysis; format: ADME, organism-based, Canis lupus familiaris; conditions: in vivo
MCF7 [25] = assay: Antitumor activity against human MCF7 cells harboring ESR1 Y537S mutant xenografted in CB17 SCID mouse assessed as tumor growth inhibition at 10 mg/kg, po qd for 4 weeks; format: functional; conditions: MCF7, 672 h, read-out: TGI
[26] = Downregulation of ERalpha protein expression in tumor of CB17 SCID mouse xenografted with human MCF7 cells harboring ESR1 D538G mutant at 10 mg/kg, po qd for 3 days and measured after 6 hrs last dose by Western blot analysis relative to control; format: functional; conditions: time 3 day
[27] = target: Voltage-gated inwardly rectifying potassium channel KCNH2 (Homo sapiens, UniProt Q12809); assay: Inhibition of human ERG in human HEK293 cells incubated for 5 mins by patch clamp assay; format: toxicity, cell-based
Voltage-gated inwardly rectifying potassium channel KCNH2, sequence (Q12809 whole entry): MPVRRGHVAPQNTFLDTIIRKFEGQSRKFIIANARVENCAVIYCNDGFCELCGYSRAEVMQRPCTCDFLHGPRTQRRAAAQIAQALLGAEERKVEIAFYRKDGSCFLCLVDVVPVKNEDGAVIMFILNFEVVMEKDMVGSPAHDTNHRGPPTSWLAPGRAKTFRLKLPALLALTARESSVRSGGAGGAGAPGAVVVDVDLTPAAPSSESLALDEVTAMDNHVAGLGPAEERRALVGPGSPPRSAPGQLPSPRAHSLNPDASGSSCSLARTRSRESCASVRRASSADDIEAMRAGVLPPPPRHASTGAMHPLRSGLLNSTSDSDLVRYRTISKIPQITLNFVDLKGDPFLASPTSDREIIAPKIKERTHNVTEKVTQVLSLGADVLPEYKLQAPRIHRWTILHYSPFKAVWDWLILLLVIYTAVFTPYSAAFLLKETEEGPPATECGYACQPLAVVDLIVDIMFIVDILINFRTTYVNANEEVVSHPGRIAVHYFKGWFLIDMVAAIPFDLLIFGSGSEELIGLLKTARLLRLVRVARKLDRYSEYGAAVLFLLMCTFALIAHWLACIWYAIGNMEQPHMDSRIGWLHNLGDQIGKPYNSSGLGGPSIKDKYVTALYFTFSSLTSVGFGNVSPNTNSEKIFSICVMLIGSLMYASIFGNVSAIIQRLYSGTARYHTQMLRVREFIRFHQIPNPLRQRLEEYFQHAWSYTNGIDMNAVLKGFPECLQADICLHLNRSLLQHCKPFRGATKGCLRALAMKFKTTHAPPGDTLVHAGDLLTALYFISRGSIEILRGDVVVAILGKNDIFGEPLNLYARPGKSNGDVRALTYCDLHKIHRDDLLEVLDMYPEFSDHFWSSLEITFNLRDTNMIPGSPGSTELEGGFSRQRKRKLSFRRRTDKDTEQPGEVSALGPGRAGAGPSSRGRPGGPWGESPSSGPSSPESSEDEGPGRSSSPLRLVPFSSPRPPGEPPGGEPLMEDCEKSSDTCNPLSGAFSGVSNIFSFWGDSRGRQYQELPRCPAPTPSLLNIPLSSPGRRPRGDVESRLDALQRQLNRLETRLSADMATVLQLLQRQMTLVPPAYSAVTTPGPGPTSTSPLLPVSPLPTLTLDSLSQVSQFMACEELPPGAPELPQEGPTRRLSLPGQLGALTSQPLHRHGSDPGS

T1 sequence (P08684 whole entry): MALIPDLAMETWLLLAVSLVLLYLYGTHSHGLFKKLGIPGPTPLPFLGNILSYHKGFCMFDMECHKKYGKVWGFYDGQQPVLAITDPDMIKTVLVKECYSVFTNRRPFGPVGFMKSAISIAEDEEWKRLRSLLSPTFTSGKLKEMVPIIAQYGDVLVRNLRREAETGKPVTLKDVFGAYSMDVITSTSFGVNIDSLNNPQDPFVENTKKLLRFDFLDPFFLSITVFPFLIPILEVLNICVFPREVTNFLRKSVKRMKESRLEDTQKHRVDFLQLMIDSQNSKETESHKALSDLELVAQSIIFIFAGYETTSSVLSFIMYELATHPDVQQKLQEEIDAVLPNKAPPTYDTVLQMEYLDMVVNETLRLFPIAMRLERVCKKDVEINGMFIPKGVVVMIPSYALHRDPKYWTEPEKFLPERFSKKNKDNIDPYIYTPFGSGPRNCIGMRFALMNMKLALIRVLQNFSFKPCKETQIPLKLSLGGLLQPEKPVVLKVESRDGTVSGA
Protein cereblon/Estrogen receptor, sequence (P03372 whole entry, looked up): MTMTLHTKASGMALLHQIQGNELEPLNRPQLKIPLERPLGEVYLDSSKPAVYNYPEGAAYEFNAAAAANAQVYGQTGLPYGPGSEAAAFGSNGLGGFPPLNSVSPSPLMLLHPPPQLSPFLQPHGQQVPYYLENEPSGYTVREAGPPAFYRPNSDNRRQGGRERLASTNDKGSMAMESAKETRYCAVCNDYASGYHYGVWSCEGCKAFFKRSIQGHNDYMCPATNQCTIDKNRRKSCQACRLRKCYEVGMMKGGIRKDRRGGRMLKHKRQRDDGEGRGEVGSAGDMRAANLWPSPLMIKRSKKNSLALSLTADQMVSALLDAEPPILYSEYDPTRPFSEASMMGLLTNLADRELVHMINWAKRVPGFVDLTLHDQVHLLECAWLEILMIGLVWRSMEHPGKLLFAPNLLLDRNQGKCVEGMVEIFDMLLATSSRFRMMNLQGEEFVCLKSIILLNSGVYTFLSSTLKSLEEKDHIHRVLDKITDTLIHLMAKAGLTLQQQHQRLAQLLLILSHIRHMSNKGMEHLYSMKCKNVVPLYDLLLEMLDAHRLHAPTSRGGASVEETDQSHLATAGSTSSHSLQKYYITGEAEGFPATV
Protein cereblon/Estrogen receptor, sequence (Q96SW2 whole entry, looked up): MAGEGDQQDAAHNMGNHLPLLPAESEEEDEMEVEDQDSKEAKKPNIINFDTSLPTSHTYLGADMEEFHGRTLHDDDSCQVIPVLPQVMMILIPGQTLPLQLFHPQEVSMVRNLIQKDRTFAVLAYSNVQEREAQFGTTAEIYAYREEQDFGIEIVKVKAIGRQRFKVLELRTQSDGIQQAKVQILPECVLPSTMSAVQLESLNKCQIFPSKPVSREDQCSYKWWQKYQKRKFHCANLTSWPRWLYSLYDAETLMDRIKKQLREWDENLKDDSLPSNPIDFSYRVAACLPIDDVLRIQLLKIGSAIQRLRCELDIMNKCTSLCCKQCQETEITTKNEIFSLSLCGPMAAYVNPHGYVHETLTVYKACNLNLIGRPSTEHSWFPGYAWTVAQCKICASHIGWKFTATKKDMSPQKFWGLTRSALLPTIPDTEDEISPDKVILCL

Activity [1]: Dose-Dependent Effect
concentration at 72 h [3]: 1440 ng/mL
concentration at 72 h [4]: 80 ng/mL
Cmax [5]: 260 ng/mL
IC50 (Cytochrome P450 3A4 [6]): > 10 µM
Vd [7]: 3.2 L/kg
half-life [8]: 6.4 h
concentration at 72 h [9]: 1470 ng/mL
concentration at 72 h [10]: 1050 ng/mL
IC50 (Cytochrome P450 3A4 [11]): > 10 µM
concentration at 72 h [13]: 3740 ng/mL
half-life [14]: 7.9 h
Vd at 24 h [16]: 1.3 L/kg
bioavailability [18]: 42%
AUC at 24 h [20]: 3370 ng·h/mL
Vd [21]: 5.2 L/kg
IC50 (Cytochrome P450 1A2): > 10 µM
clearance [24]: 11 mL/min/kg
Compound: C[C@@H]1Cc2c(ccc3[nH]ncc23)[C@@H](c2c(F)cc(N3CCC4(CCN(C(=O)CN5Cc6cc7c(cc6C5)C(=O)N(C5CCC(=O)NC5=O)C7=O)CC4)CC3)cc2F)N1CC(F)F (stereo partly drawn)
inhibition in vivo at 30 mg/kg (MCF7 [2]): 42%
inhibition in vivo at 30 mg/kg (MCF7 [12]): 101%
Activity (MCF7 [15]): Active
Activity [17]: 66%
Activity [19]: Non-Toxic
inhibition in vivo at 10 mg/kg (MCF7 [22]): 99%
Activity (MCF7 [23]): Active
inhibition in vivo at 10 mg/kg (MCF7 [25]): 72%
Activity [26]: 68%
IC50 [27]: > 30 µM
